US12110305B2, “Prodrugs of phosphonamide nucleotide analogues and their pharmaceutical use” (priority 2020, dated 2024)
pEC50: −log10 of the molar value. Values after ≈ are worked out from the molar mass of the structure shown.

Columns and labels:
HIV-1 (IIIB) = test: Antiviral (HIV) assay in MT-4 cells; type: cell-based; details: Human immunodeficiency virus 1, MT4, 120 h; HIV-1 IIIB in MT-4 cells, 5 days incubation, Cell Titer Glo; average of at least two independent experiments
Outline: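 MT-4 cells, infected with HIV-1 IIIB (1:250 dilution of concentrated stock) or mock-infected, were exposed to 1:3 serially diluted compounds in RPMI with 10% FBS. After 5 days at 37° C., CellTiter-Glo luminescence was read. EC50 = concentration causing […], from sigmoidal dose-response fits.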

physchem = type: physicochemical; details: phosphate buffered saline, 26 °C, aqueous buffer, kinetic from dmso stock, pH 7.4 PBS, 1.0% DMSO, 24-hour incubation at ambient temperature
Description: Example 108: Kinetic Solubility Analysis
Buffer Preparation: 0.1 N HCl: Hydrochloric acid, 0.1 N standardized solution (MP Biomedicals part number 199569). 1×PBS, pH 7.4: Phosphate Buffered Saline (PBS) solution 10× (Fisher Bioreagent part number BP399-500) 50 mL was added to approximately 450 mL HPLC grade H2O. The volume of the solution was then adjusted to 500 mL for a total dilution factor of 1:10 and a final PBS concentration of 1×.
The final DMSO concentration was 1.0% (v/v) and maximum theoretical compound concentration is 100 μM (for compound stock concentration of 10 mM). The filter plate was sealed. Following 24-hour incubation at ambient temperature (24.2-27.5° C.), the samples were vacuum filtered and the filtrates were collected in a 96 well polypropylene plate for analysis. The collection plate was sealed for analysis. Filtrates were injected into the Antek 8060 chemiluminescent nitrogen detector for quantification. The results are reported in μM.
The filtrates were quantified with respect to this calibration curve. Each calculated solubility value was corrected for background nitrogen present in the DMSO and in the medium used to prepare the sample. All reported values for compounds containing adjacent nitrogen atoms in a ring structure were increased by approximately 25%.

Q: With `CC(C)CCCOC(=O)C(C)(C)NP(=O)(CO[C@H](C)Cn1cnc2c(N)ncnc21)NC(C)(C)C(=O)OCCCC(C)C` [Example 67, Bis(4-methylpentyl) 2,2′-(((((1-(6-amino-9H-purin-9-yl)propan-2-yl)oxy)methyl)phosphoryl)bis(azanediyl))(R)-bis(2-methylpropanoate)] as the compound, how does the pEC50 (HIV-1 (IIIB)) read?
A: 8.10

Q: What about the solubility kinetic at 24 h (physchem) of the same compound?
A: 38 µg/mL (≈ 60.7 µM)
